This is an account of results in US20260240851A1, “Treatment of Parkinson's Disease in a Patient Using a Glucocerebrosidase Activator” (BIAL - R&D Investments, S.A., priority 2023, published 2026).

The test system of experiment [1] is GluCer, GluSph and LacCer in PBMCs and plasma. Nature of the experiment: LTI-291-004: glycolipid biomarkers. The class given is in vivo, human. The procedure:
This study was a Phase 1B, randomized, double-blind, placebo-controlled, multiple oral dose study of Compound A in 14 subjects (aged 51 to 81 years) with GBA-PD. The objectives of this study were to investigate the safety, tolerability, and PK of multiple once-daily oral administration of Compound A and to explore the accompanying pharmacodynamic changes. Subjects received once-daily oral doses of 10 mg (n=6) or 60 mg (2×30 mg capsules) (n=6) Compound A or placebo (n=2) for 28 consecutive days. PK samples were measured once on Day 7 and Day 14 and 4 times after the last dose on Day 28. Plasma concentrations were summarized at each time point, and no PK parameters were estimated. The PD evaluations included fMRI measures; FDG-PET to determine the metabolic rate of glucose in specific regions of the brain; and functional outcome measures (MDS-UPDRS Part III and the MMSE). GluCer, GluSph, and LacCer and other sphingolipids were measured in PBMCs and plasma as biomarkers of pharmacological effect.

The test system of another experiment is GCase. Nature of the experiment: Phase 2 study: GCase activity in whole blood (dried blood spot, FIA-MS/MS). Format: in vivo, human. Conditions: vs placebo. As for the experimental part:
In addition, the PD biomarkers and GCase activity in whole blood samples are measured at baseline and week 78 (preferably baseline and weeks 4, 26, 52 and 78). This may include biomarkers of lysosomal activity (e.g., glucosylsphingosine (GluSph) and/or glucosylceramide (GluCer)). Methods of measuring lysosomal activity (e.g., GluSph and/or GluCer) are described above. A method of measuring GCase activity is described below. Magnetic resonance imagining (MRI) scans are performed at baseline and week 78 for a cohort of GBA-PD subjects.
The preferred method of measuring GCase activity in whole blood is described below, and also in Totorelli, 2016, which is incorporated herein by reference:
A 5-plex cocktail assay for GCase, acid a-glucosidase (GAA), galactocerebrosidase (GALC), a-galactosidase A (GLA), and a-L-iduronidase (IDUA) activity is prepared. Vials containing the substrate (S) and internal standards (IS) for GCase and GAA are reconstituted with methanol and transferred to the GALC S+IS vial followed by evaporation. The GLA S+IS vial is reconstituted with 1.8 mL of 96 g/L sodium taurocholate in water and then transferred to the dry GALC S+IS vial, which is then heated to 60° C. to dissolve all solids. […]

For `CCCCCO[C@H]1CC[C@H](NC(=O)c2cnn3c(C)cc(C)nc23)CC1` [Compound A, 5,7-dimethyl-N-((1S*,4S)-4-(pentyloxy)cyclohexyl)pyrazolo[1,5-a]pyrimidine-3-carboxamide], in experiment [1] (10 or 60 mg daily for 28 days, GBA-PD), the PBMC glycolipid levels entry was “Significant changes”. Moreover, in experiment [1] (upon Compound A treatment), the “Plasma LacCer” value is given as “tended to decrease” and the “plasma GluCer or GluSph” value is reported as “no effect was observed”. Also, the “Mean change in GCase activity in whole blood samples” value in the experiment on GCase is “higher”.
